These results are taken from patent EP0171760A2, “Substituted phenoxypropylaminoethoxyphenoxyacetamides” (BEECHAM GROUP PLC, priority 1984, dated 1986).

Experiment [1] relates to spontaneously beating right atrium. The experiment in a line: Activity on isolated rat atria: rate of spontaneously beating right atrium. Also on record: species or system Sprague-Dawley male rats. As to conditions: 32°C; for Emax: maximal effect with respect to isoprenaline maximum (isoprenaline 10^-7M = 1), Krebs solution, read-out: Rate Intrinsic activity; for EC50: molar concentration producing 50% of the compound's own maximum response. How it is done:
(§1) Sprague-Dawley male rats (300-400 g) are killed and the right and left atria dissected out independently and mounted on a combined tissue holder/electrode. The tissues are then immersed in a glass bath containing Krebs solution maintained at 32°C. The rate of the spontaneously beating right atrium (via an isometric transducer and a ratemeter) and the tension of the electrically paced left atrium (via an isometric transducer)are recorded on a M19 chart recorder.
(§2) After an initial stabilization period, the tissues are exposed to a maximal concentration of isoprenaline (10^-7M). The tissues are then washed several times until rate and tension return to baseline level. A dose-response curve to the test compound is then carried out.
(§3) Responses to each concentration of test compound are expressed as a percentage of the maximal responses to isoprenaline. Results are given in the form of (a) intrinsic activity (maximal effect of test compound with respect to isoprenaline maximum, i.e. isoprenaline intrinsic activity = 1) and (b) EC50 (the molar concentration at which the test compound produces 50% of its own maximum response).

The test system of experiment [2] is electrically paced left atrium. The experiment in a line: Activity on isolated rat atria: tension of electrically paced left atrium. The arrangement: species or system Sprague-Dawley male rats. The note with it: 32°C; for Emax: maximal effect with respect to isoprenaline maximum (isoprenaline 10^-7M = 1), Krebs solution, read-out: Tension Intrinsic activity; for EC50: molar concentration producing 50% of the compound's own maximum response. As for the experimental part: as §1, §2, §3

The test system of experiment [3] is left ventricular pressure (LVP). The experiment in a line: Assessment of inotropic activity in conscious cats. The note with it: 0.2 mg/kg p.o., gelatin capsule, recording 6 hours post dosing. The experiment is classed as in vivo. As for the experimental part:
Male 3-4.5 kg cats, bred in-house, are implanted with a polythene cannula in the left ventricle which is exte- riorised at the back of the neck by means of a small teflon valve. Recordings are made via a pressure transducer attached by means of a length of polyethylene tubing to the cat neck valve.
During an initial 1 hour stabilisation period, steady baseline recordings are obtained. The test compound, contained in a gelatin capsule, is then administered orally. Recording is normally carried out for 6 hours post dosing.
The maximal percentage change in dp/dt over initial baseline level is used as the index of inotropic activity. Chronotropic activity is taken as the maximal percentage change in HR over initial baseline level.

What is called EC50 is the concentration needed to bring the measured effect to its halfway point. A high value points to lower potency in that assay. Turning to `CNC(=O)COc1ccc(OCCNCC(O)COc2ccc(O)cc2)cc1` (stereo not shown) [Example 2, N-methyl 4-[2-[3-(4-hydroxyphenoxy)-2-hydroxypropylamino]ethoxy]-phenoxyacetamide], in experiment [1], the Emax came out at 77% and the EC50 was determined as 68 nM. In experiment [2], the Emax turned out to be 61% and the midpoint of the response, the EC50, lay at 150 nM.

Consider `CNC(=O)COc1ccc(OCC(C)NCC(O)COc2ccc(O)cc2)cc1` (stereo not shown) [Example 1, N-methyl 4-[2-[3-(4-hydroxyphenoxy)-2-hydroxypropylamino]-2-methylethoxy]phenoxyacetamide], for which, in experiment [1], the Emax stood at 94% and the EC50 was 10 nM. Further, in experiment [2], the Emax was 88% and it took 25 nM to reach a half-maximal effect (EC50). Moreover, the “Peak HR” value in experiment [3] (maximal percentage change in HR over initial baseline (chronotropic activity)) amounted to 0%. In experiment [3] (maximal percentage change in dp/dt over initial baseline (inotropic activity)), this molecule yielded a Peak dp/dt of 22%.
